# Data: US8609674B2, “Potassium channel modulators” (AbbVie Inc., priority 2010, dated 2013)
# How the values were obtained:
# [1] = biological target: T1, human KCNQ2 and KCNQ3 subunits (KCNQ2/3 channels) (Homo sapiens, UniProt O43525+O43526); test: KCNQ2/3 thallium influx FLIPR assay (BTC-AM dye); type: cell-based; settings: for EC50: HEK293 cells stably expressing human KCNQ2 and KCNQ3, Tl+ influx; for Emax: maximum response relative to 10 μM retigabine (=100%), read-out: KCNQ2/3 Max. %
# T1 construct: expressed in transfected cells; host or cells: HEK293
# Method: The following example describes the assay that may be used to identify compounds that activate KCNQ2/3 channels.
# HEK293 cells stably expressing human KCNQ2 and KCNQ3 subunits were seeded in 96-well, black-walled, clear-bottomed, poly-D-lysine coated plates (BD Biosciences, Bedford, Mass.) at a density of 1×10^5 cells per well 24 hours before the assay. On the assay day, BTC-AM dye (Invitrogen, Carlsbad, Calif.) was loaded into the cells by replacing the cell culture medium with 55 μL/well of 3 μg/ml dye in Dulbecco's Phosphate Buffered Saline (DPBS) (Invitrogen). Dye loading was allowed to proceed for 2 hours at room temperature and then cells were washed twice with 50 μL/well of assay buffer (in mM: 10 HEPES pH 7.3, 5 glucose, 140 Na-gluconate, 2.5 K-gluconate, 3.6 Ca-gluconate, 2 MgSO4, 0.1 Ouabain) to remove unloaded dye. Cells were incubated in 50 μL of assay buffer before loading onto a FLIPR system (Molecular Devices, Sunnyvale, Calif.). Various concentrations of compounds to be assayed were added to the cells in 50 μL of assay buffer and incubated for 4 minutes. The fluorescence signal was initiated by adding 100 μL of assay buffer containing 6 mM TlNO3 and 10 mM K2SO4. Fluors were excited using the 488-nm line of an argon laser and emission was filtered using a 540±30 nm bandpass filter. Fluorescent signals were recorded for 3 minutes. Sums of the responses over basal responses were plotted versus concentrations of test compounds to obtain an EC50 value and the points fit with a nonlinear regression curve using GraphPad Prism software (GraphPad Software Inc., San Diego, Calif.). EC50 values were calculated from the resulting sigmoidal dose-response curves. The maximum response for each test compound was determined relative to the response produced by 10 μM retigabine. The maximum response of retigabine at 10 μM was set at 100%.
# human KCNQ4 = biological target: T2, human KCNQ4 (Homo sapiens, UniProt P56696); test: KCNQ4 thallium influx FLIPR TETRA assay; type: cell-based; settings: for EC50: HEK293 cells stably expressing human KCNQ4, Tl+ influx; for Emax: maximum response relative to 10 μM retigabine (=100%), read-out: KCNQ4 Max. %
# T2 construct: expressed in transfected cells; host or cells: HEK293
# Method: (§1) The following example describes the assay that may be used to identify compounds that activate KCNQ4 or KCNQ5 channels.
# (§2) The assays were performed using a FLIPR^TETRA (Molecular Devices, Sunnyvale, Calif.) in 384-well format. HEK293 cells stably expressing human KCNQ4 or KCNQ5 were seeded in 384-well, black-walled, clear-bottomed, poly-D-lysine coated plates (Greiner Bio-One, Germany) at a density of 1.5×10^4 cells per well, 24 hours before the assay. On the assay day, BTC-AM dye was loaded into the cells by replacing the cell culture medium with 30 μL/well of 2.8 μM dye in DPBS. Dye loading was allowed to proceed for 2 hours at room temperature and then cells were washed once in 30 μL/well of assay buffer (in mM: 10 HEPES pH 7.3, 5 glucose, 140 Na-gluconate, 2.5 K-gluconate, 3.6 Ca-gluconate, 2 MgSO4, 0.1 Ouabain) to remove unloaded dye. Cells were incubated in 30 μL of assay buffer before loading onto a FLIPR^TETRA system. Compounds to be assayed were added to the cells as 4× of final concentration in 15 μL of assay buffer and incubated for 4 minutes at room temperature. The influx signal was initiated by adding 15 μL of assay buffer containing 4.2 mM TlNO3 and 7 mM K2SO4. Tl^+ influx signals were recorded for 3 minutes. Tl^+ influx signal was quantified as light unit changes after Tl^+ addition using the “SUM” statistic from the FLIPR^TETRA software. Sums of the responses over basal responses were plotted versus concentrations of test compounds to obtain an EC50 value and the points fit with a nonlinear regression curve using GraphPad Prism software (GraphPad Software Inc., San Diego, Calif.). EC50 values were calculated from the resulting sigmoidal dose-response curves. The maximum response for each test compound was determined relative to the response produced by 10 μM retigabine. The maximum response of retigabine at 10 μM was set at 100%.
# human KCNQ5 = biological target: T3, human KCNQ5 (Homo sapiens, UniProt Q9NR82); test: KCNQ5 thallium influx FLIPR TETRA assay; type: cell-based; settings: for EC50: HEK293 cells stably expressing human KCNQ5, Tl+ influx; for Emax: maximum response relative to 10 μM retigabine (=100%), read-out: KCNQ5 Max. %
# T3 construct: expressed in transfected cells; host or cells: HEK293
# Method: as §1, §2
# [2] = tested on: spinal nerve ligation-induced neuropathic pain; test: Spinal nerve ligation (SNL) model of neuropathic pain; type: in vivo, Sprague-Dawley rats; settings: rat SNL model, about 30 mg/kg i.p., 30 minutes or more before testing
# Description: (§3) Adult male Sprague-Dawley rats (250-300 g body weight, Charles River Laboratories, Portage, Mich.) were used. Animal handling and experimental protocols were approved by the Institutional Animal Care and Use Committee (IACUC) at Abbott Laboratories. For all surgical procedures, animals were maintained under isoflurane anesthesia (4-5% to induce, 1-3% to maintain), and the incision sites were sterilized using a 10% povidone-iodine solution prior to and after surgeries.
# (§4) Tactile (mechanical) allodynia was measured using calibrated von Frey filaments (Stoelting, Wood Dale, Ill.) as described in Chaplan, S. R., F. W. Bach, J. M. Pogrel, J. M. Chung and T. L. Yaksh, 1994, Quantitative assessment of tactile allodynia in the rat paw, J. Neurosci. Methods, 53, 55. […] A 50% withdrawal threshold was determined using an up-down procedure (Dixon, W. J., 1980, Efficient analysis of experimental observations, Ann. Rev. Pharmacol. Toxicol., 20, 441). […] Tactile allodynia thresholds were also assessed in several control groups, including naive, sham-operated, and saline infused animals as well as in the contralateral paws of nerve-injured rats. To evaluate the anti-nociceptive effects, animals were administered vehicle or test compound and tactile allodynia was assessed 30 minutes after i.p. administration. […]
# [3] = tested on: capsaicin-induced secondary mechanical hyperalgesia; test: Capsaicin-induced secondary mechanical hypersensitivity; type: in vivo, Sprague-Dawley rats; settings: rat, about 30 mg/kg i.p., 30 min before testing, 180 min after capsaicin
# Description: as §3
# Rats were allowed to acclimate to the study room for 1 hour. They were then briefly restrained, and capsaicin was administered at 10 μg in 10 μl of vehicle (10% ethanol and 2-hydroxypropyl cyclodextrin) by intraplantar injection into the center of the right hind paw. Secondary mechanical hyperalgesia was measured at the heel away from the site of injection at 180 min following capsaicin (Joshi et al 2006, Neuroscience 143, 587-596). Compounds were injected (i.p.) 30 min before testing (150 min post-capsaicin).
# Tactile (mechanical) allodynia was measured using calibrated von Frey filaments (Stoelting, Wood Dale, Ill.) as described in Chaplan, S. R., F. W. Bach, J. M. Pogrel, J. M. Chung and T. L. Yaksh, 1994, Quantitative assessment of tactile allodynia in the rat paw, J. Neurosci. Methods, 53, 55. Rats were placed into inverted individual plastic containers (20×12.5×20 cm) on top of a suspended wire mesh grid, and acclimated to the test chambers for 20 minutes. […] A 50% withdrawal threshold was determined using an up-down procedure (Dixon, W. J., 1980, Efficient analysis of experimental observations, Ann. Rev. Pharmacol. Toxicol., 20, 441). […] Tactile allodynia thresholds were also assessed in several control groups, including naive, sham-operated, and saline infused animals as well as in the contralateral paws of nerve-injured rats. To evaluate the anti-nociceptive effects, animals were administered vehicle or test compound and tactile allodynia was assessed 30 minutes after i.p. administration.
# Tactile allodynia was measured as described above.
# [4] = tested on: chronic constriction injury-induced neuropathic pain; test: Chronic constriction injury (CCI) model of neuropathic pain (Bennett model); type: in vivo, Sprague-Dawley rats; settings: rat CCI model, about 30 mg/kg i.p., 30 minutes or more before testing
# Description: as §3, §4
EC50 [1] [µM],Emax [1] [%],EC50 (human KCNQ4) [µM],Emax (human KCNQ4) [%],EC50 (human KCNQ5) [µM],Emax (human KCNQ5) [%],SMILES,change in paw withdrawal latency versus vehicle (tactile allodynia) [2],change in paw withdrawal latency versus vehicle (tactile allodynia) [3],change in paw withdrawal latency versus vehicle (mechanical allodynia) [4]
0.1 to 0.5,109,> 30,22,> 30,294,"CCc1nc2ccccc2c(=O)n1NC(=O)C[C@@H]1CC[C@H]2C[C@@H]1C2(C)C [Example 2, 2-[(1S,2S,5S)-6,6-dimethylbicyclo[3.1.1]hept-2-yl]-N-(2-ethyl-4-oxoquinazolin-3(4H)-yl)acetamide]",,statistically significant change in paw withdrawal latency versus vehicle,
< 0.1,103,> 30,22,> 30,164,"CC(C)c1nc2ccccc2c(=O)n1NC(=O)C[C@@H]1CC[C@H]2C[C@@H]1C2(C)C [Example 1, 2-[(1S,2S,5S)-6,6-dimethylbicyclo[3.1.1]hept-2-yl]-N-[4-oxo-2-(propan-2-yl)quinazolin-3(4H)-yl]acetamide]",statistically significant change in paw withdrawal latency versus vehicle,statistically significant change in paw withdrawal latency versus vehicle,statistically significant change in paw withdrawal latency versus vehicle
1 to 10,97,> 30,3,> 30,14,"Cc1nc2ccccc2c(=O)n1NC(=O)C[C@@H]1CC[C@H]2C[C@@H]1C2(C)C [Example 17, 2-[(1S,2S,5S)-6,6-dimethylbicyclo[3.1.1]hept-2-yl]-N-(2-methyl-4-oxoquinazolin-3(4H)-yl)acetamide]",,,
0.5 to 1,121,0.5 to 1,25,> 30,14,"CC(C)c1nc2ccccc2c(=O)n1NC(=O)C[C@H]1CC[C@H]2C[C@@H]1C2(C)C [Example 21, 2-[(1S,2R,5S)-6,6-dimethylbicyclo[3.1.1]hept-2-yl]-N-[4-oxo-2-(propan-2-yl)quinazolin-3(4H)-yl]acetamide]",,,
0.5 to 1,132,> 30,57,> 30,52,"CC(C)c1nc2ccccc2c(=O)n1NC(=O)COC[C@@H]1CC[C@H]2C[C@@H]1C2(C)C [Example 8, 2-[(1S,2R,5S)-(6,6-dimethylbicyclo[3.1.1]hept-2-yl)methoxy]-N-[4-oxo-2-(propan-2-yl)quinazolin-3(4H)-yl]acetamide]",,,

# The remaining lines, values behind:
SMILES,EC50 [1] [µM],Emax [1] [%],EC50 (human KCNQ4) [µM],Emax (human KCNQ4) [%],EC50 (human KCNQ5) [µM],Emax (human KCNQ5) [%],change in paw withdrawal latency versus vehicle (tactile allodynia) [2],change in paw withdrawal latency versus vehicle (tactile allodynia) [3],change in paw withdrawal latency versus vehicle (mechanical allodynia) [4]
"CC1(C)[C@H]2CC[C@@H](CC(=O)Nn3c(C4CC4)nc4sccc4c3=O)[C@@H]1C2 [Example 15, N-(2-cyclopropyl-4-oxothieno[2,3-d]pyrimidin-3(4H)-yl)-2-[(1S,2S,5S)-6,6-dimethylbicyclo[3.1.1]hept-2-yl]acetamide]",0.1 to 0.5,149,> 30,21,> 30,210,statistically significant change in paw withdrawal latency versus vehicle,,
"CC1(C)[C@H]2CC[C@@H](CC(=O)Nn3c(C4CC4)nc4ccccc4c3=O)[C@@H]1C2 [Example 5, N-(2-cyclopropyl-4-oxoquinazolin-3(4H)-yl)-2-[(1S,2S,5S)-6,6-dimethylbicyclo[3.1.1]hept-2-yl]acetamide]",< 0.1,93,> 30,6,> 30,50,,statistically significant change in paw withdrawal latency versus vehicle,
"CC1(C)[C@H]2CC[C@@H](CC(=O)Nn3c(C4CC4)nc4cc(F)ccc4c3=O)[C@@H]1C2 [Example 3, N-(2-cyclopropyl-7-fluoro-4-oxoquinazolin-3(4H)-yl)-2-[(1S,2S,5S)-6,6-dimethylbicyclo[3.1.1]hept-2-yl]acetamide]",< 0.1,99,> 30,-2,> 30,36,,,
"CCN(CC)c1nc2ccccc2c(=O)n1NC(=O)C[C@@H]1CC[C@H]2C[C@@H]1C2(C)C [Example 19, N-[2-(diethylamino)-4-oxoquinazolin-3(4H)-yl]-2-[(1S,2S,5S)-6,6-dimethylbicyclo[3.1.1]hept-2-yl]acetamide]",0.1 to 0.5,28,> 30,8,> 30,5,,,
